Series [1] concerns diabetic (ob/ob) mice. Kind of series: Blood glucose lowering activity in diabetic (ob/ob) mice. In kind it is in vivo. As to conditions: Mus musculus, po. The protocol: The procedures used and results obtained are briefly described below. […]
In each test procedure, mice [Male or female ob/ob (C57 B1/6J) and their lean litermates (ob/+ or +/+, Jackson Laboratories) ages 2 to 5 months (10 to 65 g)] of a similar age were randomized according to body weight into 4 groups of 10 mice. The mice were housed 5 per cage and are maintained on normal rodent chow with water ad libitum. Mice received test compound daily by gavage (suspended in 0.5 ml of 0.5% methyl cellulose); dissolved in the drinking water; or admixed in the diet. The dose of compounds given ranges from 2.5 to 200 mg/kg body weight/day. The dose is calculated based on the fed weekly body weight and is expressed as active moiety. […] Control mice received vehicle only.
On the morning of Day 4, 7 or 14 two drops of blood (approximetly 50 ul) were collected into sodium fluoride containing tubes either from the tail vein or after decapitation. For those studies in which the compound was administered daily by gavage the blood samples were collected two hours after compound administration. […]
Analysis of variance followed by Dunett's Comparison Test (one-tailed) are used to estimate the significant difference between the plasma glucose values from the control group and the individual compound treated groups (CMS SAS Release 5.18).

Series [2] deals with T1, recombinant rat protein tyrosine phosphatase, PTP1B (rPTP1B) (Rattus norvegicus, UniProt P20417).
T1 sequence (P20417 1-432): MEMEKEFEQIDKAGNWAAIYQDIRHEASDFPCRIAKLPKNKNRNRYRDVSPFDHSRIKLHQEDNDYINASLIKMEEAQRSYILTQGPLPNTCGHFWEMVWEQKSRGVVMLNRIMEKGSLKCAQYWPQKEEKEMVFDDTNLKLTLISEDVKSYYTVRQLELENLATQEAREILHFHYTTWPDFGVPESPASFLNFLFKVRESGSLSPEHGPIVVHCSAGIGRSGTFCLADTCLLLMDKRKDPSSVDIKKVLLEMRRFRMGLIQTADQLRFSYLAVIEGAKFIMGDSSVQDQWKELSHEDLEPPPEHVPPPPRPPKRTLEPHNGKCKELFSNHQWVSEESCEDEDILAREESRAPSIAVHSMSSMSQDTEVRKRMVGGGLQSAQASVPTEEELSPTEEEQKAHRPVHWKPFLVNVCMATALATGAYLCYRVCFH
The class given is biochemical. The conditions noted are these: for % change from control at 10 μM: 10 μM compound.

For series [3], the target named is rat hepatic microsomal PTPases. The conditions noted are these: rat hepatic microsomal PTPase; for pIC50: dodecaphosphopeptide substrate 50 uM; for % Change from Control at 50 μM: 50 μM compound.
Where [4] appears, read: 96 h, plasma glucose on Day 4, 7 or 14, suffix a = no significant activity at this dose, read-out: % Change Glucose from Vehicle.
[5] abbreviates: suffix a = no significant activity at this dose, read-out: % Change Insulin from Vehicle.

pIC50: −log10 of the molar value. Like-named read-outs stand apart in the source and are kept apart here.

As a reminder, the pIC50 is the IC50 on a negative log10 scale, so that one unit is a factor of ten. `CCc1oc2ccccc2c1C(=O)c1cc(Br)c(O)c(Br)c1` [Example 1, (2-Ethyl-benzofuran-3-yl)-(3,5-dibromo-4-hydroxy-phenyl)-methanone]: the change in vivo at 100 mg/kg was -44.6% in series [1] (setting [4]) and -89.5% in series [1] (setting [5]). The pIC50 in series [2] is 4.59; in series [3], 4.15.

The term melting point denotes the temperature, or range, at which the solid turns liquid. As for `O=C(O)COc1c(Br)cc(C(=O)c2c(Cc3ccccc3)oc3ccccc23)cc1Br` [Example 10, [4-(2-Benzyl-benzofuran-3-carbonyl)-2,6-dibromo-phenoxy]-acetic acid], the melting point lay within 165 to 167 °C. Further, in series [1] (setting [4]), the change in vivo at 100 mg/kg is -17.7%. In series [1] (setting [5]), the change in vivo at 100 mg/kg is -70%. In addition, in series [2] (rPTP1B), the “% change from control at 10 μM” value was −75 (rPTP1B) %. Also, the pIC50 in series [3] was 4.44.

The compound `CCCCc1oc2ccccc2c1C(=O)c1cc(Br)c(OCC(=O)O)c(Br)c1` [Example 5, [2,6-Dibromo-4-(2-butyl-benzofuran-3-carbonyl)-phenoxy]-acetic acid] came in with a melting point of 92 to 94 °C. Further, the change in vivo at 100 mg/kg in series [1] (setting [4]) is -20.1%. In series [1] (setting [5]), the change in vivo at 100 mg/kg is -54.8%. In series [2] (rPTP1B), the “% change from control at 10 μM” value is recorded as −78 (rPTP1B) %. In addition, in series [3], the pIC50 is 4.51.

Take `CCCCc1oc2ccccc2c1C(=O)c1cc(Br)c(O)c(Br)c1` [Example 6, (2-Butyl-benzofuran-3-yl)-(3,5-dibromo-4-dihydroxy-phenyl)-methanone]: the change in vivo at 100 mg/kg in series [1] (setting [4]) is -40.6%; in series [1] (setting [5]), -70.4%. Also, the “% change from control at 10 μM” value in series [2] (rPTP1B) is −90 (rPTP1B) %. This compound also had a negative logarithm of the IC50 (pIC50) in series [3] of 4.62.

`CCc1oc2ccc(Cl)cc2c1C(=O)c1cc(Br)c(OCC(=O)O)c(Br)c1` [Example 20, [2,6-dibromo-4-(5-chloro-2-ethyl-1-benzofuran-3-carbonyl)-phenoxy]-acetic acid] came in with a melting point of 175 to 177 °C. In addition, the “% change from control at 10 μM” value in series [2] (rPTP1B) is given as −34 (rPTP1B) %. The pIC50 in series [3] was 4.39.

As to `CCc1oc2ccccc2c1C(=O)c1cc(I)c(O)c(I)c1` [Example 18, (2-ethyl-benzofuran-3-yl)-(4-hydroxy-3,5-diiodo-phenyl)-methanone], the change in vivo at 100 mg/kg was -39.6% in series [1] (setting [4]) and -83.6% in series [1] (setting [5]). Moreover, the “% change from control at 10 μM” value in series [2] (rPTP1B) is listed as −60 (rPTP1B) %. In series [3], this compound gave a pIC50 of 4.51.

`O=C(c1cc(Br)c(OCP(=O)(O)O)c(Br)c1)c1c(Cc2ccccc2)sc2ccccc12` [Example 21, [4-(2-benzyl-benzo[b]thiophen-3-carbonyl)-2,6-dibromo-phenoxymethyl]-phosphonic acid] returned a melting point of 210 to 212 °C. In addition, the “% change from control at 10 μM” value in series [2] (rPTP1B) is recorded as −35 (rPTP1B) %. Moreover, in series [3], the pIC50 is 4.46.

`O=C(O)COc1c(I)cc(C(=O)c2c(Cc3ccccc3)oc3ccccc23)cc1I` [Example 17, [4-(2-Benzyl-benzofuran-3-carbonyl)-2,6-diiodo-phenoxy]-acetic acid] gave a melting point of 144 to 146 °C. The “% change from control at 10 μM” value in series [2] (rPTP1B) is −97 (rPTP1B) %. The compound further showed a pIC50 in series [3] of 4.55.

`O=C(O)COc1c(Br)cc(C(=O)c2c(Cc3ccccc3)sc3ccccc23)cc1Br` [Example 12, [4-(2-Benzyl-benzo[b]thiophen-3-carbonyl)-2,6-dibromo-phenoxy]-acetic acid] gave a melting point of 162 to 163 °C. Further, the change in vivo at 100 mg/kg in series [1] (setting [4]) is -30.7%. Further, in series [1] (setting [5]), the change in vivo at 100 mg/kg was -60.7%. Also, the “% change from control at 10 μM” value in series [2] (rPTP1B) was −88 (rPTP1B) %. In addition, the pIC50 in series [3] is 4.56.

Regarding `O=C(c1cc(I)c(O)c(I)c1)c1c(Cc2ccccc2)oc2ccccc12` [Example 9, (2-Benzyl-benzofuran-3-yl)-(4-hydroxy-3,5-diiodo-phenyl)-methanone], the melting point lay within 153 to 154 °C. In addition, the change in vivo at 100 mg/kg in series [1] (setting [4]) is -37.1%. In addition, the change in vivo at 100 mg/kg in series [1] (setting [5]) was -73.7%. Besides, the “% change from control at 10 μM” value in series [2] (rPTP1B) is −99 (rPTP1B) %. The compound further showed a pIC50 in series [3] of 4.64.

With `CC1(COc2ccc(CC3SC(=O)NC3=O)cc2)CCCCC1` (centres unmarked) [Ciglitazone, 5-(4-(1-methylcyclohexylmethoxy)benzyl)-2,4-dione, reference compound], the change in vivo at 100 mg/kg in series [1] (setting [4]) is -43%; in series [1] (setting [5]), -39%.

In the case of `O=C(c1cc(Br)c(O)c(Br)c1)c1c(Cc2ccccc2)oc2ccccc12` [Example 14, (2-Benzyl-benzofuran-3-yl)-(3,5-dibromo-4-hydroxy-phenyl)-methanone], the melting point lay in the range of 156 to 158 °C. In series [1] (setting [4]), the change in vivo at 100 mg/kg was -36.8%. In addition, in series [1] (setting [5]), the change in vivo at 100 mg/kg was -40.7%. Further, the “% change from control at 10 μM” value in series [2] (rPTP1B) is −81 (rPTP1B) %. Moreover, the pIC50 in series [3] was 4.56.

As for `CCc1oc2ccccc2c1Cc1cc(Br)c(O)c(Br)c1` [Example 3, 2,6-Dibromo-4-(2-ethyl-benzofuran-3-yl-methyl)-phenol], the melting point lay in the range of 87 to 88 °C. The change in vivo at 100 mg/kg in series [1] (setting [4]) is -6.2%. In series [1] (setting [5]), the change in vivo at 100 mg/kg was -56.6%. Further, the “% change from control at 10 μM” value in series [2] (rPTP1B) is −74 (rPTP1B) %. The “% Change from Control at 50 μM” value in series [3] is recorded as −34%.

Take `CCc1oc2ccc(Cl)cc2c1C(=O)c1cc(Br)c(O)c(Br)c1` [Example 13, (5-Chloro-2-ethyl-benzofuran-3-yl)-(3,5-dibromo-4-hydroxy-phenyl)-methanone]: the values for the change in vivo at 100 mg/kg in series [1] (setting [4]) and in series [1] (setting [5]) were -12% and -74.5%, respectively. In addition, the “% change from control at 10 μM” value in series [2] (rPTP1B) is on record as −64 (rPTP1B) %. For the same compound, the pIC50 in series [3] was 4.57.

In the case of `CCc1oc2ccccc2c1C(=O)c1c(Br)cc(Br)c(O)c1Br` [Example 8, (2-Ethyl-benzofuran-3-yl)-(2,4,6-tribromo-3-hydroxy-phenyl)-methanone], the melting point fell in the range of 153 to 154 °C. In addition, in series [1] (setting [4]), the change in vivo at 100 mg/kg was -3.3%. Also, the change in vivo at 100 mg/kg in series [1] (setting [5]) is -31.2%. Further, in series [2] (rPTP1B), the “% change from control at 10 μM” value was −61 (rPTP1B) %. In addition, in series [3], the pIC50 was 4.76.

Compound `CCc1oc2ccccc2c1C(=O)c1cc(Br)c(OCC(=O)O)c(Br)c1` [Example 2, [2,6-dibromo-4-(2-ethyl-benzofuran-3-carbonyl)-phenoxy]-acetic acid] came in with a melting point of 135 to 137 °C. Moreover, the change in vivo at 100 mg/kg in series [1] (setting [4]) is -48.1%. Further, in series [1] (setting [5]), the change in vivo at 100 mg/kg is -78.2%. For the same compound, in series [2] (rPTP1B), the “% change from control at 10 μM” value is on record as −30 (rPTP1B) %. Further, the “% Change from Control at 50 μM” value in series [3] is given as −25%.

The compound `CCc1oc2ccccc2c1C(=O)c1cc(Br)c(O)c(Br)c1O` [Example 4, (3,5-Dibromo-2,4-dihydroxy-phenyl)-(2-ethyl-benzofuran-3-yl)-methanone] came in with a melting point of 150 to 151 °C. Also, the change in vivo at 100 mg/kg in series [1] (setting [4]) is -19.8%. Moreover, the change in vivo at 100 mg/kg in series [1] (setting [5]) is -61.8%. In addition, in series [2] (rPTP1B), the “% change from control at 10 μM” value is on record as −64 (rPTP1B) %. For the same compound, the pIC50 in series [3] was 4.46.

Take `O=C(c1cc(Br)c(O)c(Br)c1)c1c(CCc2ccccc2)oc2ccccc12` [Example 15, (3,5-Dibromo-4-hydroxy-phenyl)-(2-phenethyl-benzofuran-3-yl)-methanone]: the melting point lay in the range of 153 to 154 °C. For the same compound, the change in vivo at 100 mg/kg in series [1] (setting [4]) is -32.8%. In series [1] (setting [5]), the change in vivo at 100 mg/kg is -10.3%. Besides, the pIC50 in series [2] (rPTP1B, read-out: IC50) is 5.59. In addition, the pIC50 in series [3] was 4.69.

`O=C(O)COc1c(Br)cc(C(=O)c2c(CCc3ccccc3)oc3ccccc23)cc1Br` [Example 19, [2,6-Dibromo-4-(2-phenethyl-benzofuran-3-carbonyl)-phenoxy]-acetic acid] gave a melting point of 163 to 164 °C. Moreover, the “% change from control at 10 μM” value in series [2] (rPTP1B) was −53 (rPTP1B) %. For the same compound, the pIC50 in series [3] was 4.58.

The values are drawn from patent publication US6844358B2, “Phenyl oxo-acetic acids useful in the treatment of insulin resistance and hyperglycemia” (Wyeth, priority 1998, dated 2005).
